Data published in ChEMBL document CHEMBL1136614, “Hydroporphyrins as tumour photosensitizers: synthesis and photophysical studies of 2,3-dihydro-5,15-di(3,5-dihydroxyphenyl) porphyrin” (2003).

Columns and labels:
C6 = experiment: Survival rates when cells were incubated for 5 hr without light; assay type: functional, Rattus norvegicus
[1] = Dose required to induce 90% death rate for C6 glioma cells from rats; assay type: functional, Rattus norvegicus
HT-29 = experiment: Compound was tested for in vivo photo-sensitizing activity on human colon adenocarcinoma cell (HT-29); assay type: functional

## Oc1cc(O)cc(-c2c3nc(cc4ccc([nH]4)c(-c4cc(O)cc(O)c4)c4ccc(cc5nc2CC5)[nH]4)C=C3)c1
C6
  Survival: 100%
[1]
  LD90: 4.8 µg/mL
HT-29
  Inhibition: 40%
